Experimental findings from patent US20100093662A1, “NOVEL AMPHIPHILIC CYCLODEXTRIN DERIVATIVES” (CENTRE NATIONAL DE LA RECHERCHE SCIENTIFIQUE-CNRS-, priority 2006, published 2010) are described below.

For data set [1], the system named is plasmid pTG11236. Briefly: Electrophoretic analysis of nanoparticles of DNA (agarose gel, ethidium bromide). Type of data set: binding. The following applies: for accessibility of the DNA at the intercalation by ethidium bromide: N/P ratio=5, plasmid pTG11236. On the procedure: The plasmid pTG11236 (pCMV-SV40-luciferase-SV40 pA), used in the preparation of DNA complexes and for transfection tests is a plasmid with 5739 pairs of bases. The quantities of compounds used are calculated to obtain a DNA concentration of 0.1 mg·mL^−1 (303 μM in phosphate equivalent) and the desired Nitrogen/Phosphate (N/P) ratios. Tests for values of N/P=5, 10, 30 and 50 were carried out both for compound no. 8 and for compound no. 16. As a reference transfection formulation (positive control), we used polyplexes formulated with the same plasmid and the polycationic polymer polyethyleneimine (branched PEI, 25 kDa), and naked DNA as a negative control.
For the preparation of the complexes, the DNA is diluted in HEPES (20 mM, pH 7.4) until a final concentration of 303 μM in phosphate equivalent, then the quantity of compound no. 8 or no. 16 necessary, obtained from a stock solution of 20 mg·mL^−1 in DMSO-water 1:2 (v/v) is added in order to obtain the desired N/P ratio. For the PEI, a 0.1M stock solution in water is used. The mixtures are vortexed for 10 sec and used in the characterisation and for the transfection tests, as described below.
10 μl of each formulation of complexes prepared as mentioned above are diluted once in the loaded buffer (glycerol+bromophenol blue+Tris-acetate-EDTA or TAE). 1 μl of this solution are deposited on a gel with 8% agarose. The rest of the sample is diluted once with a decomplexing solution with 8% sodium dodecyl sulfate (SDS) in TAE, then 10 μl are also deposited on a gel. The electrophoresis is carried out for […] at 50V. The gel is then developed with ethidium bromide (Sigma) in TAE ([…] of a solution of ethidium bromide with a concentration of 10 mg·mL^−1 in 200 mL of TAE). The DNA is also visualised and photographed with an UV transilluminator. FIGS. 2 and 3 are photos of electrophoretic analyses, carried out on agarose gel in the presence of ethidium bromide, of DNA complexes/nanoparticles obtained with compound no. 8 according to an N/P ratio of 5, 10, 30 and 50 respectively.

In data set [2] the test system is BNL-CL2 cells. Description: In vitro transfection of nanoparticles of DNA, luciferase assay. It counts as cell-based, Murine. Conditions: 0.5 μg of DNA per well (FIG. 6: N/P=10). As to the method: (§1) Murine embryo cells BNL-CL2 are grown in 96-well plates until a density of 2×10^4 cells/well in a DMEM culture medium (Dulbelcco's Modified Eagle Medium, Gibco-BRL) containing 10% foetal calf serum (SVF; Sigma) at 37° C. in a humid atmosphere with a proportion of 5% CO2/95% air.
(§2) The complexes between compound no. 8, no. 16 or polyethyleneimine (PEI), and plasmid pTG11236 are diluted in 100 μl of DMEM so as to obtain 0.5 μg of DNA in the well.
(§3) The culture medium is removed and replaced by 100 μl of solution of nanoparticle complex/DNA in DMEM. After 4 hrs and 24 hrs, 50 and 100 μL of DMEM containing 30% and 10% of FCS, respectively, are added. After 48 hrs, the transfection is stopped, the culture medium is removed and the cells are washed with PBS (2×100 μL), then lysed with 50 μL of lysis buffer (Promega, Charbonnières, France). The lysates are frozen at −32° C. until the luciferase and protein assay.
The luciferase assay is used to assess the efficacy of transfection. This assay is based on a chimioluminescence reaction whose principle is based on oxydation by luciferase of its substrate (luciferine) with concomitant production of a photon. The activity of the luciferase is measured with a Biolumat LB96P WMP100 apparatus (BERTHOLD) for 10 sec after the injection of 50 μl of reagent containing luciferine (Prmèga assay kit) in each well containing 10 μl of cell extract. […]

In data set [3] the test system is BNL-CL2 cells. Briefly: Cell viability after transfection (BCA protein assay). Type of data set: cell-based, Murine. The following applies: for cell viability compared with PEI/DNA polyplexes at the same N/P ratios: N/P ratios>10; for cell viability after transfection: complexes with pTG11236, N/P 5 to 50, 0.5 μg plasmid/well. As to the method:
as §1, §2, §3
The protein assay is based on the BCA test (Pierce). The protein assay is carried out on 15 μl of cell lysate to which are added 300 μl of Pierce reagent (BCA Protein Assay Reagent). It consists of a colorimetric assay which is carried out with UV/visible MRX spectrophotometry (DYNEX Technologies). For each assay, a standard series is carried out with BSA (Bovine Serum Albumin, BIO-RAD), of 0 to 30 μg per well. The reading is taken at 570 nm, after 30 […] at ambient temperature. With this standard BSA series, the OD may be expressed in mg of protein/well.
The ratio of the quantities of proteins corresponding to the transfected and non transfected (100% cell viability) cells is used to assess the cell viability of the complexes (expressed in %).
All of the formulations are tested at least 3 times. The results obtained were processed using STATGRAPHICS Plus5.1 software (trade mark). Anova analysis of variance is carried out on the values of the efficacies of transfection (LoglO(fg luciferase/mg protein)) and on the cell viability. It is possible to analyse the impact (on the transfection or cell viability) of the variation of one or several factors by applying a mono- or multifactorial analysis of variance, respectively. The method used to compare the means is the HSD (honestly significant difference) intervals by Tukey.

The nature of data set [4]: Size and polydispersion of white homogenous nanospheres (quasi-elastic diffusion of light), physical stability over time. It counts as physicochemical. On the procedure: The method used to prepare white homogenous nanospheres consists in introducing an organic phase of acetone (or tetrahydrofurane) and an amphiphilic cyclodextrin derivative from the invention (1 mg·mL^−1) in an aqueous phase of equivalent volume or a double volume (distilled water), under magnetic stirring (500 r.p.m.) at 25° C. After nanoprecipitation, the organic solvent is eliminated under reduced pressure at +35° C. The aqueous suspension presenting an opalescent to milky appearance (according to the products used) is then concentrated until the final volume desired is obtained, then filtered on a 0.8 μm filter (Millex AA, Millipore, France).
The colloid suspensions are then characterised as regards the granulometry (mean size and polydisperion) and, when they incorporate loaded amphiphilic cyclodextrins, by their zeta potential. The characterisation is carried out using the following methods:
The quasi-elastic diffusion of light is used. A Zetasizer 3000 apparatus equipped with a K7132 correlator (Malvern Instruments, RU) was used. The conditions for measurement are as follows: angle of detection 90°, temperature 25±0.1° C., apparent viscosity 0.89 mPa·s. Before measuring the size, samples are diluted in distilled water if necessary. The hydrodynamic diameter (mean Z) and polydispersion index (PI) of the nanoparticles in suspension are calculated in intensity by the cumulant method by carrying out 3 measurements on the same sample. The value of the hydrodynamic diameter is calculated using the measurement of the translational coefficient of diffusion of particles with Brownian movement. An NanoZS apparatus (Malvern Instruments) was also used to measure the size of the nanocapsules. In the same way, the samples are diluted before measurement, if necessary in water added to Montanox 80 (trade mark).
The studies on the physical stability of particles were carried out over periods ranging from 1 month to 8 months. The corresponding data for a series of amphiphilic cyclodextrins in the invention are indicated in Table 1 providing the granulometric characteristics (mean size and polydispersion index or mean PI), with evolution over time, of different homogenous nanospheres derived from the compounds indicated in the left column, the reference number for said compounds corresponding to those of the compounds described in the above examples.

Consider `CCCCCC(=O)O[C@@H]1[C@@H](OC(=O)CCCCC)[C@H]2O[C@H]3[C@H](OC(=O)CCCCC)[C@@H](OC(=O)CCCCC)[C@@H](O[C@H]4[C@H](OC(=O)CCCCC)[C@@H](OC(=O)CCCCC)[C@@H](O[C@H]5[C@H](OC(=O)CCCCC)[C@@H](OC(=O)CCCCC)[C@@H](O[C@H]6[C@H](OC(=O)CCCCC)[C@@H](OC(=O)CCCCC)[C@@H](O[C@H]7[C@H](OC(=O)CCCCC)[C@@H](OC(=O)CCCCC)[C@@H](O[C@H]8[C@H](OC(=O)CCCCC)[C@@H](OC(=O)CCCCC)[C@@H](O[C@@H]1[C@@H](CSCCNC(=S)NCCN)O2)O[C@@H]8CSCCNC(=S)NCCN)O[C@@H]7CSCCNC(=S)NCCN)O[C@@H]6CSCCNC(=S)NCCN)O[C@@H]5CSCCNC(=S)NCCN)O[C@@H]4CSCCNC(=S)NCCN)O[C@@H]3CSCCNC(=S)NCCN.Cl.Cl.Cl.Cl.Cl.Cl.Cl` [compound no. 16, heptakis[6-desoxy-6-(2-(N′-(2-aminoethyl)thioureido)ethylthio)-2,3-di-O-hexanoyl]cyclomaltoheptaose heptachlorhydrate], for which the “accessibility of the DNA at the intercalation by ethidium bromide” value in data set [1] is “no longer accessible”. In data set [2], the “levels of transfection compared with N/P 10 polyplexes formulated with PEI” value was “equal” and the “levels of transfection, times higher than those with naked DNA” value was “about 10,000 times”. Besides, in data set [3], the “cell viability compared with PEI/DNA polyplexes at the same N/P ratios” value is reported as “significantly higher” and the “cell viability after transfection” value is recorded as “excellent”.
Take “heptakis[6-desoxy-2,3-di-0-myristoyl-6-(2-isothiocyanatoethylthio)]cyclomaltoheptaose [compound no. 12]”: in data set [4] (initial), the “Mean size ± standard deviation (n = 3)” value amounted to 72 ± 32 nm and the “PI (polydispersion index)” value came to 0.31.
With “heptakis[6-(2-aminoethylthio)-6-desoxy-2,3-di-O-hexanoyl]cyclomaltoheptaose heptachlorhydrate [compound no. 8]”, in data set [1], the “accessibility of the DNA at the intercalation by ethidium bromide” value is “partially accessible”. Besides, the “complexation of the DNA (absence of DNA bands)” value in data set [1] (N/P ratio≧10, plasmid pTG11236) is “total complexation”. In addition, in data set [3], the “cell viability compared with PEI/DNA polyplexes at the same N/P ratios” value is reported as “significantly higher” and the “cell viability after transfection” value is on record as “excellent”.
As for `CCCCCC(=O)OC1C2OC(CSCCNC(=S)NC)C(OC3OC(CSCCNC(=S)NC)C(OC4OC(CSCCNC(=S)NC)C(OC5OC(CSCCNC(=S)NC)C(OC6OC(CSCCNC(=S)NC)C(OC7OC(CSCCNC(=S)NC)C(OC8OC(CSCCNC(=S)NC)C(O2)C(OC(=O)CCCCC)C8OC(=O)CCCCC)C(OC(=O)CCCCC)C7OC(=O)CCCCC)C(OC(=O)CCCCC)C6OC(=O)CCCCC)C(OC(=O)CCCCC)C5OC(=O)CCCCC)C(OC(=O)CCCCC)C4OC(=O)CCCCC)C(OC(=O)CCCCC)C3OC(=O)CCCCC)C1OC(=O)CCCCC` (centres unmarked) [compound no. 13, heptakis[6-desoxy-2,3-di-0-hexanoyl-6-(2-(N′-methylthioureido)ethylthio)]cyclomaltoheptaose], in data set [4] (initial), the “Mean size ± standard deviation (n = 3)” value is listed as 115 ± 31 nm and the “PI (polydispersion index)” value came out at 0.16.
On to `CCCCCC(=O)O[C@@H]1[C@@H](OC(=O)CCCCC)[C@H]2O[C@H]3[C@H](OC(=O)CCCCC)[C@@H](OC(=O)CCCCC)[C@@H](O[C@H]4[C@H](OC(=O)CCCCC)[C@@H](OC(=O)CCCCC)[C@@H](O[C@H]5[C@H](OC(=O)CCCCC)[C@@H](OC(=O)CCCCC)[C@@H](O[C@H]6[C@H](OC(=O)CCCCC)[C@@H](OC(=O)CCCCC)[C@@H](O[C@H]7[C@H](OC(=O)CCCCC)[C@@H](OC(=O)CCCCC)[C@@H](O[C@H]8[C@H](OC(=O)CCCCC)[C@@H](OC(=O)CCCCC)[C@@H](O[C@@H]1[C@@H](CSCCN=C=S)O2)O[C@@H]8CSCCN=C=S)O[C@@H]7CSCCN=C=S)O[C@@H]6CSCCN=C=S)O[C@@H]5CSCCN=C=S)O[C@@H]4CSCCN=C=S)O[C@@H]3CSCCN=C=S` [compound no. 9, heptakis[6-desoxy-2,3-di-0-hexanoyl-6-(2-isothiocyanatoethylthio)]cyclomaltoheptaose], for which, in data set [4] (3 months), the “IP (polydispersion index)” value is reported as 0.09 and the “Mean size ± standard deviation (n = 3)” value came to 138 ± 2 nm. In data set [4] (initial), the “Mean size ± standard deviation (n = 3)” value came out at 123 ± 2 nm and the “PI (polydispersion index)” value is given as 0.03.
